Patent US10633379B2, “Bromodomain inhibitors” (AbbVie Inc., priority 2016, dated 2020)
pKi: −log10 of the molar value.

How the values were obtained:
BRD4 (BDI_K57-E168) = BRD4 (BDI_K57-E168) (Homo sapiens (Human), UniProt O60885); assay: TR-FRET bromodomain binding assay, BRD4 BDI; conditions: mean Ki, calculated from IC50, probe Kd and probe concentration
How it was run: (§1)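 Probe displacement measured by TR-FRET after 1 h at room temperature, in 20 mM sodium phosphate pH 6.0 and 2% DMSO. BDI used 12 nM protein with 100 nM probe, BDII 4 nM with 30 nM probe, each with 1 nM europium antibody. Ki derived from fitted IC50, probe Kd and probe level.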

BRD4 (BDII_E352-M457) = BRD4 (BDII_E352-M457) (Homo sapiens (Human), UniProt O60885); assay: TR-FRET bromodomain binding assay, BRD4 BDII; conditions: mean Ki, calculated from IC50, probe Kd and probe concentration
How it was run: as §1

Row | SMILES | pKi (BRD4 (BDI_K57-E168)) | pKi (BRD4 (BDII_E352-M457))
1 | Cc1cccc(Cl)c1Oc1ccc(C(C)(C)O)cc1-c1cn(C)c(=O)c2[nH]c(C(=O)NC(C)(C)C(F)(F)F)cc12 [Example 41, 4-[2-(2-chloro-6-methylphenoxy)-5-(2-hydroxypropan-2-yl)phenyl]-6-methyl-7-oxo-N-(1,1,1-trifluoro-2-methylpropan-2-yl)-6,7-dihydro-1H-pyrrolo[2,3-c]pyridine-2-carboxamide] | 6.12 | 8.32
2 | Cc1cccc(Cl)c1Oc1ccc(C(C)(C)O)cc1-c1cn(C)c(=O)c2[nH]c(C(=O)NC3(C)CC3(F)F)cc12 (centres unmarked) [Example 42, 4-[2-(2-chloro-6-methylphenoxy)-5-(2-hydroxypropan-2-yl)phenyl]-N-(2,2-difluoro-1-methylcyclopropyl)-6-methyl-7-oxo-6,7-dihydro-1H-pyrrolo[2,3-c]pyridine-2-carboxamide] | 6.15 | 8.24
3 | CCNC(=O)c1cc2c(-c3cc(C(C)(C)O)cnc3Oc3c(C)cc(F)cc3C)cn(C)c(=O)c2[nH]1 [Example 43, N-ethyl-4-[2-(4-fluoro-2,6-dimethylphenoxy)-5-(2-hydroxypropan-2-yl)pyridin-3-yl]-6-methyl-7-oxo-6,7-dihydro-1H-pyrrolo[2,3-c]pyridine-2-carboxamide] | 6.28 | 8.30
4 | Cc1cc(F)cc(C)c1Oc1ncc(C(C)(C)O)cc1-c1cn(C)c(=O)c2[nH]c(C(=O)NC(C)(C)C)cc12 [Example 44, N-tert-butyl-4-[2-(4-fluoro-2,6-dimethylphenoxy)-5-(2-hydroxypropan-2-yl)pyridin-3-yl]-6-methyl-7-oxo-6,7-dihydro-1H-pyrrolo[2,3-c]pyridine-2-carboxamide] | 6.49 | 8.14
5 | Cc1cccc(C(F)(F)F)c1Oc1ncc(C(C)(C)O)cc1-c1cn(C)c(=O)c2[nH]c(C(=O)NC(C)(C)C)cc12 [Example 45, N-tert-butyl-4-{5-(2-hydroxypropan-2-yl)-2-[2-methyl-6-(trifluoromethyl)phenoxy]pyridin-3-yl}-6-methyl-7-oxo-6,7-dihydro-1H-pyrrolo[2,3-c]pyridine-2-carboxamide] | 5.97 | 7.90
6 | Cc1cccc(C(F)(F)F)c1Oc1ncc(C(C)(C)O)cc1-c1cn(C)c(=O)c2[nH]c(C(=O)NC(C)(C)C(F)(F)F)cc12 [Example 46, 4-{5-(2-hydroxypropan-2-yl)-2-[2-methyl-6-(trifluoromethyl)phenoxy]pyridin-3-yl}-6-methyl-7-oxo-N-(1,1,1-trifluoro-2-methylpropan-2-yl)-6,7-dihydro-1H-pyrrolo[2,3-c]pyridine-2-carboxamide] | 5.60 | 7.71
7 | Cc1cccc(C(F)(F)F)c1Oc1ncc(C(C)(C)O)cc1-c1cn(C)c(=O)c2[nH]c(C(=O)NC3(C)CC3(F)F)cc12 (centres unmarked) [Example 47, N-(2,2-difluoro-1-methylcyclopropyl)-4-{5-(2-hydroxypropan-2-yl)-2-[2-methyl-6-(trifluoromethyl)phenoxy]pyridin-3-yl}-6-methyl-7-oxo-6,7-dihydro-1H-pyrrolo[2,3-c]pyridine-2-carboxamide] | 5.69 | 7.61
8 | CCNC(=O)c1cc2c(-c3cc(C(C)(C)O)cnc3Oc3c(C)cccc3C(F)(F)F)cn(C)c(=O)c2[nH]1 [Example 48, N-ethyl-4-{5-(2-hydroxypropan-2-yl)-2-[2-methyl-6-(trifluoromethyl)phenoxy]pyridin-3-yl}-6-methyl-7-oxo-6,7-dihydro-1H-pyrrolo[2,3-c]pyridine-2-carboxamide] | 5.80 | 8.22
9 | CCNC(=O)c1cc2c(-c3cc(C(C)(C)O)ccc3Oc3c(C)cc(F)cc3Cl)cn(C)c(=O)c2[nH]1 [Example 49, 4-[2-(2-chloro-4-fluoro-6-methylphenoxy)-5-(2-hydroxypropan-2-yl)phenyl]-N-ethyl-6-methyl-7-oxo-6,7-dihydro-1H-pyrrolo[2,3-c]pyridine-2-carboxamide] | 6.55 | 9.00
10 | Cc1cc(F)cc(Cl)c1Oc1ncc(C(C)(C)O)cc1-c1cn(C)c(=O)c2[nH]c(C(=O)NC(C)(C)C)cc12 [Example 51, N-tert-butyl-4-[2-(2-chloro-4-fluoro-6-methylphenoxy)-5-(2-hydroxypropan-2-yl)pyridin-3-yl]-6-methyl-7-oxo-6,7-dihydro-1H-pyrrolo[2,3-c]pyridine-2-carboxamide] | 6.58 | 8.31
11 | CCNC(=O)c1cc2c(-c3cc(C(C)(C)O)cnc3Oc3c(C)cc(F)cc3Cl)cn(C)c(=O)c2[nH]1 [Example 52, 4-[2-(2-chloro-4-fluoro-6-methylphenoxy)-5-(2-hydroxypropan-2-yl)pyridin-3-yl]-N-ethyl-6-methyl-7-oxo-6,7-dihydro-1H-pyrrolo[2,3-c]pyridine-2-carboxamide] | 6.49 | 9.05
12 | Cc1cc(F)cc(Cl)c1Oc1ccc(C(C)(C)O)cc1-c1cn(C)c(=O)c2[nH]c(C(=O)NC(C)(C)C)cc12 [Example 53, N-tert-butyl-4-[2-(2-chloro-4-fluoro-6-methylphenoxy)-5-(2-hydroxypropan-2-yl)phenyl]-6-methyl-7-oxo-6,7-dihydro-1H-pyrrolo[2,3-c]pyridine-2-carboxamide] | 6.36 | 8.34
13 | Cc1cccc(C(F)(F)F)c1Oc1ccc(C(C)(C)O)cc1-c1cn(C)c(=O)c2[nH]c(C(=O)NC(C)(C)C)cc12 [Example 54, N-tert-butyl-4-{5-(2-hydroxypropan-2-yl)-2-[2-methyl-6-(trifluoromethyl)phenoxy]phenyl}-6-methyl-7-oxo-6,7-dihydro-1H-pyrrolo[2,3-c]pyridine-2-carboxamide] | 5.34 | 8.22
14 | Cc1cc(F)cc(C)c1Oc1ccc(C(C)(C)O)cc1-c1cn(C)c(=O)c2[nH]c(C(=O)NC(C)(C)C(F)(F)F)cc12 [Example 55, 4-[2-(4-fluoro-2,6-dimethylphenoxy)-5-(2-hydroxypropan-2-yl)phenyl]-6-methyl-7-oxo-N-(1,1,1-trifluoro-2-methylpropan-2-yl)-6,7-dihydro-1H-pyrrolo[2,3-c]pyridine-2-carboxamide] | 5.33 | 8.16
15 | Cc1cc(F)cc(C)c1Oc1ncc(C(C)(C)O)cc1-c1cn(C)c(=O)c2[nH]c(C(=O)NC(C)(C)C(F)(F)F)cc12 [Example 56, 4-[2-(4-fluoro-2,6-dimethylphenoxy)-5-(2-hydroxypropan-2-yl)pyridin-3-yl]-6-methyl-7-oxo-N-(1,1,1-trifluoro-2-methylpropan-2-yl)-6,7-dihydro-1H-pyrrolo[2,3-c]pyridine-2-carboxamide] | 6.04 | 8.33
16 | Cc1cc(F)cc(Cl)c1Oc1ccc(C(C)(C)O)cc1-c1cn(C)c(=O)c2[nH]c(C(=O)NC(C)(C)C(F)(F)F)cc12 [Example 57, 4-[2-(2-chloro-4-fluoro-6-methylphenoxy)-5-(2-hydroxypropan-2-yl)phenyl]-6-methyl-7-oxo-N-(1,1,1-trifluoro-2-methylpropan-2-yl)-6,7-dihydro-1H-pyrrolo[2,3-c]pyridine-2-carboxamide] | 5.54 | 7.76
17 | Cc1cc(F)cc(Cl)c1Oc1ncc(C(C)(C)O)cc1-c1cn(C)c(=O)c2[nH]c(C(=O)NC(C)(C)C(F)(F)F)cc12 [Example 58, 4-[2-(2-chloro-4-fluoro-6-methylphenoxy)-5-(2-hydroxypropan-2-yl)pyridin-3-yl]-6-methyl-7-oxo-N-(1,1,1-trifluoro-2-methylpropan-2-yl)-6,7-dihydro-1H-pyrrolo[2,3-c]pyridine-2-carboxamide] | 6.14 | 8.09
18 | Cc1cc(F)cc(C)c1Oc1ccc(C(C)(C)O)cc1-c1cn(C)c(=O)c2[nH]c(C(=O)NC3(C)CC3(F)F)cc12 (centres unmarked) [Example 60, N-(2,2-difluoro-1-methylcyclopropyl)-4-[2-(4-fluoro-2,6-dimethylphenoxy)-5-(2-hydroxypropan-2-yl)phenyl]-6-methyl-7-oxo-6,7-dihydro-1H-pyrrolo[2,3-c]pyridine-2-carboxamide] | 5.45 | 8.12
19 | Cc1cc(F)cc(C)c1Oc1ncc(C(C)(C)O)cc1-c1cn(C)c(=O)c2[nH]c(C(=O)NC3(C)CC3(F)F)cc12 (centres unmarked) [Example 61, N-(2,2-difluoro-1-methylcyclopropyl)-4-[2-(4-fluoro-2,6-dimethylphenoxy)-5-(2-hydroxypropan-2-yl)pyridin-3-yl]-6-methyl-7-oxo-6,7-dihydro-1H-pyrrolo[2,3-c]pyridine-2-carboxamide] | 5.80 | 7.92
20 | Cc1cc(F)cc(Cl)c1Oc1ncc(C(C)(C)O)cc1-c1cn(C)c(=O)c2[nH]c(C(=O)NC3(C)CC3(F)F)cc12 (centres unmarked) [Example 62, 4-[2-(2-chloro-4-fluoro-6-methylphenoxy)-5-(2-hydroxypropan-2-yl)pyridin-3-yl]-N-(2,2-difluoro-1-methylcyclopropyl)-6-methyl-7-oxo-6,7-dihydro-1H-pyrrolo[2,3-c]pyridine-2-carboxamide] | 5.95 | 7.99
21 | Cc1cccc(Cl)c1Oc1ncc(C(C)(C)O)cc1-c1cn(C)c(=O)c2[nH]c(C(=O)NC34CC(C3)C4)cc12 [Example 63, N-(bicyclo[1.1.1]pentan-1-yl)-4-[2-(2-chloro-6-methylphenoxy)-5-(2-hydroxypropan-2-yl)pyridin-3-yl]-6-methyl-7-oxo-6,7-dihydro-1H-pyrrolo[2,3-c]pyridine-2-carboxamide] | 6.39 | 8.82
22 | CCNC(=O)c1cc2c(-c3cc(C(C)(C)O)c(F)cc3Oc3c(C)cccc3C)cn(C)c(=O)c2[nH]1 [Example 64, 4-[2-(2,6-dimethylphenoxy)-4-fluoro-5-(2-hydroxypropan-2-yl)phenyl]-N-ethyl-6-methyl-7-oxo-6,7-dihydro-1H-pyrrolo[2,3-c]pyridine-2-carboxamide] | 6.74 | 9.40
